Values quoted from earlier work, collected in US9200991B2, “Sorptive extraction layer for immobilized liquid extraction” (Tecan Trading AG, priority 2013, dated 2015).

reported logP: approximately 3.8
SMILES: CC(C)Cc1ccc(C(C)C(=O)O)cc1 (stereo not shown) [Ibuprofen]
